For test [1], the system named is PANC-1. The test is described as follows: Antiproliferative activity against human PANC1 cells after 48 hrs by propidium iodide staining-based fluorometric analysis. It counts as functional, cell-based. The conditions noted are these: PANC-1, 48 h.
Test [2] has as its system MIA PaCa-2. The test can be described thus: Antiproliferative activity against human MIAPaCa2 cells after 48 hrs by propidium iodide staining-based fluorometric analysis. It counts as functional, cell-based. The conditions noted are these: MIA PaCa-2, 48 h.
In test [3] the test system is HT-29. The test is described as follows: Antiproliferative activity against human HT-29 cells after 48 hrs by propidium iodide staining-based fluorometric analysis. It counts as functional, cell-based. The conditions noted are these: HT-29, 48 h.
Test [4] has as its system NCI-H460. The test can be described thus: Antiproliferative activity against human H460 cells after 48 hrs by propidium iodide staining-based fluorometric analysis. It is filed as functional, cell-based. The following applies: NCI-H460, 48 h.
Test [5] has as its target Epidermal growth factor receptor (Homo sapiens, UniProt P00533). The test is described as follows: Inhibition of His6-tagged recombinant EGFR cytoplasmic domain (645 to 1186 residues) (unknown origin) expressed in baculovirus infected Sf9 insect cells preincubated for 10 mins followed by ATP-MgCl2 addition and measured after 1 hr by DELFIA/time-resolved fluorometric analysis.

Test [6] has as its system A549. The test is described as follows: Induction of apoptosis in human A549 cells assessed as early apoptotic cells at 0.4 uM after 24 hrs by Annexin V/propidium iodide staining based flow cytometric analysis (reference value: 0.22%). It counts as functional.
The test system of test [7] is A549. The test can be described thus: Induction of apoptosis in human A549 cells assessed as late apoptotic cells at 0.4 uM after 24 hrs by Annexin V/propidium iodide staining based flow cytometric analysis (reference value: 0.08%). It counts as functional. On the technique in general: Flow cytometry measures light scatter and fluorescence of single cells or particles in a stream.

Test [8] has as its system A549. The test can be described thus: Induction of apoptosis in human A549 cells assessed as necrotic cells at 0.4 uM after 24 hrs by Annexin V/propidium iodide staining based flow cytometric analysis (reference value: 0.09%). It counts as functional.
For test [9], the system named is A549. The test can be described thus: Induction of apoptosis in human A549 cells assessed as viable cells at 0.4 uM after 24 hrs by Annexin V/propidium iodide staining based flow cytometric analysis (reference value: 98.03%). It is filed as functional. The following applies: A549, 24 h, read-out: Activity.
Test [10] relates to A549. The test is described as follows: Cell cycle arrest in human A549 cells assessed as accumulation at G1 phase at 0.4 uM after 24 hrs by propidium iodide staining based flow cytometry (reference value: 67.52%). It is filed as functional.
The test system of test [11] is A549. The test can be described thus: Cell cycle arrest in human A549 cells assessed as accumulation at G2 phase at 0.4 uM after 24 hrs by propidium iodide staining based flow cytometry (reference value: 4.19%). It is filed as functional.
For test [12], the system named is A549. The test is described as follows: Cell cycle arrest in human A549 cells assessed as accumulation at S phase at 0.4 uM after 24 hrs by propidium iodide staining based flow cytometry (reference value: 27.9%). It is filed as functional.

Each structure is given as a SMILES string. pIC50: −log10 of the molar value.

Sequence of Epidermal growth factor receptor (P00533 whole entry, the tested form may be a part): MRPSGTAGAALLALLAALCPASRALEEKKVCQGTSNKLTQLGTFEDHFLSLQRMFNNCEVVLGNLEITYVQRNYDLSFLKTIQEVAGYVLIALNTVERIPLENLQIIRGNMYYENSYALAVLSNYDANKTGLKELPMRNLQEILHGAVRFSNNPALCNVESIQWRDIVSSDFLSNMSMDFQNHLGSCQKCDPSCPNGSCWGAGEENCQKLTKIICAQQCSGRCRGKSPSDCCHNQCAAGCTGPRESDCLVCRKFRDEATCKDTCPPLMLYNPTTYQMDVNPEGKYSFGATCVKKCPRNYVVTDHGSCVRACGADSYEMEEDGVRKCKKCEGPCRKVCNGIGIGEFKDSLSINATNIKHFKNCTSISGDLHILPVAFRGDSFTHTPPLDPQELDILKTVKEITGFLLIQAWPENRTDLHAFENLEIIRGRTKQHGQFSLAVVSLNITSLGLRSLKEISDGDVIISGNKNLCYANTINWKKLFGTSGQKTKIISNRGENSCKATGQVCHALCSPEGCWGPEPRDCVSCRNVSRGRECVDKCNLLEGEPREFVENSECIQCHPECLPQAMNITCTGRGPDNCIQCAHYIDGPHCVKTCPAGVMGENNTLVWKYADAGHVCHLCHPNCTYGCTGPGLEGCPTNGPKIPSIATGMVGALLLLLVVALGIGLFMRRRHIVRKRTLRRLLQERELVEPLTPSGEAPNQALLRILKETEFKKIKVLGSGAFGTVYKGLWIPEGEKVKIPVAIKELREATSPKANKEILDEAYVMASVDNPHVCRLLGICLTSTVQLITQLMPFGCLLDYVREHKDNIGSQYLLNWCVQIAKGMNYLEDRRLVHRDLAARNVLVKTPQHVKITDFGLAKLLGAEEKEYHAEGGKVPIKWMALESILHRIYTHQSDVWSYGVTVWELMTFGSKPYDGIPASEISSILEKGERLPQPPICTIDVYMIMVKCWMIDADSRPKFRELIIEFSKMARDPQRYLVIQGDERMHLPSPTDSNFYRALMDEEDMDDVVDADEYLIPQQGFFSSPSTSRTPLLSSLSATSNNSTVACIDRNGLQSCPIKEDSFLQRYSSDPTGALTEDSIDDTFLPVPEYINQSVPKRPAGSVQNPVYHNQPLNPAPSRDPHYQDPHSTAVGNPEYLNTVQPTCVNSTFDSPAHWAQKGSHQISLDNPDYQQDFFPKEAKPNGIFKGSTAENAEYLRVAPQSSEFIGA

Turning to `COc1cc(-c2nc3sc(-c4ccc(Cl)cc4)cn3n2)cc(OC)c1OC`, the pIC50 in [1] was 5.46; in test [2], 5.41; in [3], 5.46; in test [4], 5.52; in [5], 5.77. Also, the Activity stood at 5.38% in test [6]; 7.65% in [7]; 1.84% in test [8]; 49.52% in [10]; 22.92% in [11]; 12.69% in test [12]. Further, in test [9], the viability at 0.4 µM was determined as 83.5%.

The term pIC50 denotes the negative decadic logarithm of the IC50, by convention in mol/L.

(Values after ChEMBL document CHEMBL4270577, “Synthesis, anticancer activity and molecular modeling studies of 1,2,4-triazole derivatives as EGFR inhibitors” (Eur J Med Chem, 2018).)
